Assay results as given in patent US11053230B2, “3-hydroxy-imidazolidin-4-one compounds as inhibitors of indoleamine 2,3-dioxygenase” (Netherlands Translational Research Center B.V., priority 2017, dated 2021).
“And” between values parts separate entries of the source, which are not always exact repeats. Equal values may be shown once.

Molecular target: T1, IDO1 (Homo sapiens, UniProt P14902)
T1 construct: Recombinant full-length IDO1 (Seegers, N., et al.) and all other assay components were diluted in IDO1 reaction buffer; made in house
T1 sequence (P14902 whole entry): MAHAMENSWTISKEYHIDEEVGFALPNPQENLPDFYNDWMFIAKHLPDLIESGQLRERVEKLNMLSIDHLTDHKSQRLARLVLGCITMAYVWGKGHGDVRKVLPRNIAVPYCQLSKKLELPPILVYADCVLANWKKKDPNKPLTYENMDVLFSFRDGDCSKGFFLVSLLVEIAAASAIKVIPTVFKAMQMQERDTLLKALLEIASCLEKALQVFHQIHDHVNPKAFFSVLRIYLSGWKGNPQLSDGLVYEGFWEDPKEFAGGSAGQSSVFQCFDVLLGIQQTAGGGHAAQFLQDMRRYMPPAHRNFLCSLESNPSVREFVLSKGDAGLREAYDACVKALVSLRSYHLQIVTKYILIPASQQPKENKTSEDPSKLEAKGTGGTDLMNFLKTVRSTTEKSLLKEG
Experiment: Biochemical IDO1 assay (NFK GreenScreen)
Settings: for IC50: NFK GreenScreen, 25 nM IDO1, 100 μM L-tryptophan, read-out: IC50, inhibitory potency on IDO1; for relative activity of the separated isomers: stated in the synthesis examples, assay not named
Description: Inhibition of IDO1 activity can be measured by determining the enzymatic conversion of L-tryptophan into N-formylkynurenine (NFK) in a reaction mixture containing IDO1 and test compound. The formation of NFK can be detected directly by, for instance, high-performance liquid chromatography (HPLC) methods, or by intrinsic fluorescence.
Compounds were serially diluted in dimethylsulfoxide (DMSO) and finally in IDO1 reaction buffer, consisting of 50 mM NaH2PO4, pH7.0, supplemented with 0.05% Tween-20 (cat. No. P7949; Sigma Aldrich) and 1% glycerol. Recombinant full-length IDO1 (Seegers, N., et al.) and all other assay components were diluted in IDO1 reaction buffer. […] Subsequently, 10 μl of 0.4 mM of the substrate L-tryptophan was added, i.e., the final concentration of L-tryptophan was 100 μM. The DMSO concentration in the assay was 0.3%. […] Incubation was continued for 60 min at room temperature. Then, 10 μl of NFK Green™ (NTRC, Oss, The Netherlands) was added, the plate was sealed, and the reaction was developed for 3 hours at 37° C. To determine the production of N-formyl kynurenine (NFK), the seal was removed and fluorescence was read on an EnVision multimode reader (Perkin Elmer, Waltham, Mass., USA). IC50 were calculated using XLfit™ software (ID Business Solutions, Ltd., Surrey, U.K.).

Row | IC50 | relative activity of the separated isomers | Structure (SMILES)
1 | ≤ 1 µM |  | CC(=O)NCC#Cc1cc(F)c(C(=O)N2CC(=O)N(O)C2c2cc(Br)cs2)c(F)c1 (centres unmarked) [Example 130, N-[3-[4-[2-(4-Bromo-2-thienyl)-3-hydroxy-4-oxo-imidazolidine-1-carbonyl]-3,5-difluoro-phenyl]prop-2-ynyl]acetamide]
2 | ≤ 1 µM |  | NCC#Cc1cc(F)c(C(=O)N2CC(=O)N(O)C2c2cc(Br)cs2)c(F)c1 (centres unmarked) [Example 79, 1-[4-(3-Aminoprop-1-ynyl)-2,6-difluoro-benzoyl]-2-(4-bromo-2-thienyl)-3-hydroxy-imidazolidin-4-one]
3 | ≤ 1 µM |  | O=C1CN(Cc2c(F)cccc2F)C(c2cc(Br)cs2)N1O (centres unmarked) [Example 44, 2-(4-Bromo-2-thienyl)-1-[(2,6-difluorophenyl)methyl]-3-hydroxy-imidazolidin-4-one]
4 | ≤ 1 µM |  | Cc1cccc(F)c1C(=O)N1CC(=O)N(O)C1c1cc(Br)cs1 (centres unmarked) [Example 65, 2-(4-Bromo-2-thienyl)-1-(2-fluoro-6-methyl-benzoyl)-3-hydroxy-imidazolidin-4-one]
5 | ≤ 1 µM |  | O=C1CN(C(=O)c2ccncc2F)C(c2cc(Br)cs2)N1O (centres unmarked) [Example 73, 2-(4-Bromo-2-thienyl)-1-(3-fluoropyridine-4-carbonyl)-3-hydroxy-imidazolidin-4-one]
6 | ≤ 5 µM and 1 to 5 µM |  | O=C1CN(C(=O)c2c(F)cccc2F)C(c2cc(Br)co2)N1O (centres unmarked) [Example 23, 2-(4-Bromo-2-furyl)-1-(2,6-difluorobenzoyl)-3-hydroxy-imidazolidin-4-one]
7 | ≤ 1 µM |  | O=C1CN(C(=O)c2c(F)cccc2Cl)C(c2csc(Br)c2)N1O (centres unmarked) [Example 99, 2-(5-Bromo-3-thienyl)-1-(2-chloro-6-fluoro-benzoyl)-3-hydroxy-imidazolidin-4-one]
8 | ≤ 1 µM |  | CC(C)C=Cc1cc(F)c(C(=O)N2CC(=O)N(O)C2c2cc(Br)cs2)c(F)c1 (centres unmarked) [Example 94, 2-(4-Bromo-2-thienyl)-1-[2,6-difluoro-4-[3-methylbut-1-enyl]benzoyl]-3-hydroxy-imidazolidin-4-one]
9 | ≤ 1 µM |  | O=C1CN(C(=O)c2ccccc2Cl)C(c2cc(Br)cs2)N1O (centres unmarked) [Example 55, 2-(4-Bromo-2-thienyl)-1-(2-chlorobenzoyl)-3-hydroxy-imidazolidin-4-one]
10 | ≤ 1 µM |  | C=Cc1cc(F)c(C(=O)N2CC(=O)N(O)C2c2cc(Br)cs2)c(F)c1 (centres unmarked) [Example 83, 2-(4-Bromo-2-thienyl)-1-(2,6-difluoro-4-vinyl-benzoyl)-3-hydroxy-imidazolidin-4-one]
11 | ≤ 1 µM |  | CC(C)(N)C#Cc1cc(F)c(C(=O)N2CC(=O)N(O)C2c2cc(Br)cs2)c(F)c1 (centres unmarked) [Example 81, 1-[4-(3-Amino-3-methyl-but-1-ynyl)-2,6-difluoro-benzoyl]-2-(4-bromo-2-thienyl)-3-hydroxy-imidazolidin-4-one]
12 | ≤ 1 µM | most active isomer | O=C1CN(C(=O)c2c(F)cccc2F)C(c2ccc(Br)s2)N1O (single isomer, unassigned) [Example 49b, 2-(5-Bromo-2-thienyl)-1-(2,6-difluorobenzoyl)-3-hydroxy-imidazolidin-4-one]
13 | ≤ 1 µM | most active isomer | C[C@@H](c1ccccc1)N1CC(=O)N(O)C1c1csc(Br)c1 (single isomer, unassigned) [Example 121b]
14 | ≤ 5 µM and 1 to 5 µM | less active isomer | O=C1CN(C(=O)c2c(F)cccc2F)C(c2ccc(Br)s2)N1O (single isomer, unassigned) [Example 49a, 2-(5-Bromo-2-thienyl)-1-(2,6-difluorobenzoyl)-3-hydroxy-imidazolidin-4-one]
15 | ≤ 1 µM |  | N#Cc1cc(F)c(C(=O)N2CC(=O)N(O)C2c2cc(Br)cs2)c(F)c1 (centres unmarked) [Example 117, 4-[2-(4-Bromo-2-thienyl)-3-hydroxy-4-oxo-imidazolidine-1-carbonyl]-3,5-difluoro-benzonitrile]
16 | ≤ 1 µM |  | [2H]C([2H])([2H])c1sc(C2N(O)C(=O)CN2C(=O)c2c(F)cccc2F)cc1Br (centres unmarked) [Example 114, 2-[4-Bromo-5-(trideuteriomethyl)-2-thienyl]-1-(2,6-difluorobenzoyl)-3-hydroxy-imidazolidin-4-one]

Continued, compound first:

Row | Structure (SMILES) | IC50 | relative activity of the separated isomers
17 | O=C1CN(C(=O)c2c(F)cccc2F)C(c2csc(Br)c2)N1O (single isomer, unassigned) [Example 46b, 2-(5-Bromo-3-thienyl)-1-(2,6-difluorobenzoyl)-3-hydroxy-imidazolidin-4-one] | ≤ 1 µM | most active isomer
18 | O=C1CN(C(=O)c2c(F)ccc(-c3ccc4ccccc4c3)c2F)C(c2cc(Br)cs2)N1O (centres unmarked) [Example 135, 2-(4-Bromo-2-thienyl)-1-[2,6-difluoro-3-(2-naphthyl)benzoyl]-3-hydroxy-imidazolidin-4-one] | ≤ 1 µM | 
19 | O=C1CN(C(=O)c2c(Cl)cccc2Cl)C(c2cc(Br)cs2)N1O (centres unmarked) [Example 10, 2-(4-Bromo-2-thienyl)-1-(2,6-dichlorobenzoyl)-3-hydroxy-imidazolidin-4-one] | ≤ 5 µM and 1 to 5 µM | 
20 | O=C1CN(C(=O)c2c(F)cccc2F)C(c2cc(Br)cs2)N1O (single isomer, unassigned) [Example 48b, 2-(4-Bromo-2-thienyl)-1-(2,6-difluorobenzoyl)-3-hydroxy-imidazolidin-4-one] | ≤ 1 µM | most active isomer
21 | O=C1CN(C(=O)c2c(F)cccc2F)C(c2ccc([N+](=O)[O-])s2)N1O (centres unmarked) [Example 16, 1-(2,6-Difluorobenzoyl)-3-hydroxy-2-(5-nitro-2-thienyl)imidazolidin-4-one] | ≤ 5 µM and 1 to 5 µM | 
22 | C[C@@H](c1ccccc1)N1CC(=O)N(O)C1c1cc(I)cs1 (single isomer, unassigned) [Example 119a] |  | less active isomer
23 | CC(C)C#Cc1cc(F)c(C(=O)N2CC(=O)N(O)C2c2cc(Br)cs2)c(F)c1 (centres unmarked) [Example 50, 2-(4-Bromo-2-thienyl)-1-[2,6-difluoro-4-(3-methylbut-1-ynyl)benzoyl]-3-hydroxy-imidazolidin-4-one] | ≤ 1 µM | 
24 | O=C1CN(C(=O)c2c(F)cc(-c3cccnc3)cc2F)C(c2cc(Br)cs2)N1O (centres unmarked) [Example 88, 2-(4-Bromo-2-thienyl)-1-[2,6-difluoro-4-(3-pyridyl)benzoyl]-3-hydroxy-imidazolidin-4-one] | ≤ 1 µM | 
25 | COc1cc(F)c(C(=O)N2CC(=O)N(O)C2c2cc(Br)cs2)c(F)c1 (centres unmarked) [Example 51, 2-(4-Bromo-2-thienyl)-1-(2,6-difluoro-4-methoxy-benzoyl)-3-hydroxy-imidazolidin-4-one] | ≤ 1 µM | 
26 | O=C1CN(C(=O)c2cccc(Cl)c2Cl)C(c2cc(Br)cs2)N1O (centres unmarked) [Example 69, 2-(4-Bromo-2-thienyl)-1-(2,3-dichlorobenzoyl)-3-hydroxy-imidazolidin-4-one] | ≤ 1 µM | 
27 | O=C1CN(C(=O)c2ccccc2F)C(c2ccc(Br)s2)N1O (centres unmarked) [Example 2, 2-(5-Bromo-2-thienyl)-1-(2-fluorobenzoyl)-3-hydroxy-imidazolidin-4-one] | ≤ 1 µM | 
28 | CSc1ccc(C2N(O)C(=O)CN2C(=O)c2ccccc2F)s1 (centres unmarked) [Example 13, 1-(2-Fluorobenzoyl)-3-hydroxy-2-(5-methylsulfanyl-2-thienyl)imidazolidin-4-one] | ≤ 5 µM and 1 to 5 µM | 
29 | CS(=O)(=O)NCc1cc(F)c(C(=O)N2CC(=O)N(O)C2c2cc(Br)cs2)c(F)c1 (centres unmarked) [Example 91, N-[[4-[2-(4-Bromo-2-thienyl)-3-hydroxy-4-oxo-imidazolidine-1-carbonyl]-3,5-difluoro-phenyl]methyl]methanesulfonamide] | ≤ 1 µM | 
30 | NS(=O)(=O)NCC#Cc1cc(F)c(C(=O)N2CC(=O)N(O)C2c2cc(Br)cs2)c(F)c1 (centres unmarked) [Example 80, 2-(4-Bromo-2-thienyl)-1-[2,6-difluoro-4-[3-(sulfamoylamino)prop-1-ynyl]benzoyl]-3-hydroxy-4-oxo-imidazolidine] | ≤ 1 µM | 
31 | C[C@@H](c1ccccc1)N1CC(=O)N(O)C1c1cc(I)cs1 (single isomer, unassigned) [Example 119b] | ≤ 1 µM | most active isomer
32 | Cn1cc(-c2cc(F)c(C(=O)N3CC(=O)N(O)C3c3cc(Br)cs3)c(F)c2)cn1 (centres unmarked) [Example 86, 2-(4-Bromo-2-thienyl)-1-[2,6-difluoro-4-(1-methylpyrazol-4-yl)benzoyl]-3-hydroxy-imidazolidin-4-one] | ≤ 1 µM | 
33 | CN(C)c1cc(F)c(C(=O)N2CC(=O)N(O)C2c2cc(Br)cs2)c(F)c1 (centres unmarked) [Example 97, 2-(4-Bromo-2-thienyl)-1-[4-(dimethylamino)-2,6-difluoro-benzoyl]-3-hydroxy-imidazolidin-4-one] | ≤ 5 µM and 1 to 5 µM | 
34 | O=C1CN(C(=O)c2c(F)cccc2C(F)(F)F)C(c2cc(Br)cs2)N1O (centres unmarked) [Example 11, 2-(4-Bromo-2-thienyl)-1-[2-fluoro-6-(trifluoromethyl)benzoyl]-3-hydroxy-imidazolidin-4-one] | ≤ 5 µM and 1 to 5 µM | 
35 | O=C1CN(C(=O)c2ccccc2F)C(c2csc(Br)c2)N1O (centres unmarked) [Example 98, 2-(5-Bromo-3-thienyl)-1-(2-fluorobenzoyl)-3-hydroxy-imidazolidin-4-one] | ≤ 1 µM | 
